What was measured:
human TLR8 = biological target: T1, human TLR8 (Homo sapiens, UniProt Q9NR97); experiment: HEK293-Blue-hTLR-8 cells assay
T1 sequence (Q9NR97 27-1041): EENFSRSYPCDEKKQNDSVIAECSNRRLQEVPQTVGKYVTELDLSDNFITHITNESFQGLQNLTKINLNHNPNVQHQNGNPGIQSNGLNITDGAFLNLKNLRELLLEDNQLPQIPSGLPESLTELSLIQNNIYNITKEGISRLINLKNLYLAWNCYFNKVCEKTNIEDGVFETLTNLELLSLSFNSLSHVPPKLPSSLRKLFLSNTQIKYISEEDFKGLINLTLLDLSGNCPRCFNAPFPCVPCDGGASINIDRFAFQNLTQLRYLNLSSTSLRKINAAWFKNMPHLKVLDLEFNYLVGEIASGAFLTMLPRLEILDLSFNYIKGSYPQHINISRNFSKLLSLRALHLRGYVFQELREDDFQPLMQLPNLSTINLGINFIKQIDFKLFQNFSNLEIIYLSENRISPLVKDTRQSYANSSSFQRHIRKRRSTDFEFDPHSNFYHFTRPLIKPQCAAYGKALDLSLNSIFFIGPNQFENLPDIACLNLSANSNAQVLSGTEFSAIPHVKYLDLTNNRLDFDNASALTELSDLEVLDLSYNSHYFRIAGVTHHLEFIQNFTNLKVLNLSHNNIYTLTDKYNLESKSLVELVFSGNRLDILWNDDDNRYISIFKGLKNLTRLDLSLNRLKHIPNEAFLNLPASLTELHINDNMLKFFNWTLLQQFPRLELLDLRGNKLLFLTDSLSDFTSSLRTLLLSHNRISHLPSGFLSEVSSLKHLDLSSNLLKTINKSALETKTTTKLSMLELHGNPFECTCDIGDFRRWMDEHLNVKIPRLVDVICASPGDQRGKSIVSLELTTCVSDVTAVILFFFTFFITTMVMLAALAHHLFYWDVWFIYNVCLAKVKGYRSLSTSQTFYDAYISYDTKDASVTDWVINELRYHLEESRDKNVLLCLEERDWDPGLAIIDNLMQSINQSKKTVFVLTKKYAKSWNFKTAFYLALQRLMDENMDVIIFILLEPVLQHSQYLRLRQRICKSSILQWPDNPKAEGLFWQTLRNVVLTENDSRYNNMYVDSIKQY

human TLR7 = biological target: T2, human TLR7 (Homo sapiens, UniProt Q9NYK1); experiment: HEK293-Blue-hTLR-7 cells assay; assay type: cell-based; conditions: HEK293-Blue-hTLR7 cells, R848 stimulation, 20 hrs, SEAP reporter; read-out: HEK/hTLR7 IC50
T2 construct: host or cells: HEK293 (HEK-Blue hTLR7)
T2 sequence (Q9NYK1 27-1049): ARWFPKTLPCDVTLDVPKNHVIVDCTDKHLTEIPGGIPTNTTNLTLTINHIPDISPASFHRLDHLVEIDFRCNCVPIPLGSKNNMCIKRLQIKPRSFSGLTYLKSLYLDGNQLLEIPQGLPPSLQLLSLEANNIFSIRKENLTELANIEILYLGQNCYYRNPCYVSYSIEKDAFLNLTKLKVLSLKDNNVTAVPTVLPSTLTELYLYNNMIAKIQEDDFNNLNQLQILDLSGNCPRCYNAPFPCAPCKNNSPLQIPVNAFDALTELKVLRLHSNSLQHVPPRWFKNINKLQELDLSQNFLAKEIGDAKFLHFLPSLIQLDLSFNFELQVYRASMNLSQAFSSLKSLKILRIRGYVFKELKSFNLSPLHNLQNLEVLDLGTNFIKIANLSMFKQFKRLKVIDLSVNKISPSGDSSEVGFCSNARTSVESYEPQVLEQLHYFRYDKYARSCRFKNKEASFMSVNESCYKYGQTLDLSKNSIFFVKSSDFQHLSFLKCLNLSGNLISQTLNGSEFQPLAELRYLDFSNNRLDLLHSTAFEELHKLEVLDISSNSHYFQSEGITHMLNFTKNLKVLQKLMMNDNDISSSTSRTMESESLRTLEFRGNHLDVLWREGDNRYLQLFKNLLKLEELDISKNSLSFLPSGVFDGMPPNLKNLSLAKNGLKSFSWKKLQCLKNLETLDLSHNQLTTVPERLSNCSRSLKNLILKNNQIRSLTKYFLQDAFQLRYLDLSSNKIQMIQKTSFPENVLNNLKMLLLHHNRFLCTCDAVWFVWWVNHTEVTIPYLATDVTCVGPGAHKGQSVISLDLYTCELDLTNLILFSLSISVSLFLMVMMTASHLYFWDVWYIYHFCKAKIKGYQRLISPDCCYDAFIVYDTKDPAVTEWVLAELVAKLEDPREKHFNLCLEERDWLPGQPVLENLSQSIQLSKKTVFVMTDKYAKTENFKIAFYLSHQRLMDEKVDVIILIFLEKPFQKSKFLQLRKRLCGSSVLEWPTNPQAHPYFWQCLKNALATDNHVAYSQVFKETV
Procedure: The following tests were carried out in order to determine the activity of the compounds of formula (I) and (Ia) in HEK293-Blue-hTLR-7/8/9 cells assay.
HEK293-Blue-hTLR-7 cells assay:
A stable HEK293-Blue-hTLR-7 cell line was purchased from InvivoGen (Cat. #: hkb-htlr7, San Diego, Calif., USA). These cells were originally designed for studying the stimulation of human TLR7 by monitoring the activation of NF-κB. A SEAP (secreted embryonic alkaline phosphatase) reporter gene was placed under the control of the […] minimal promoter fused to five NF-κB and AP-1-binding sites. The SEAP was induced by activating NF-κB and AP-1 via stimulating HEK-Blue hTLR7 cells with TLR7 ligands. Therefore, the reporter expression was declined by TLR7 antagonist under the stimulation of a ligand, such as R848 (Resiquimod), for incubation of 20 hrs. The cell culture supernatant SEAP reporter activity was determined using QUANTI-Blue™ kit (Cat. #: rep-qb1, Invivogen, San Diego, Calif., USA) at a wavelength of 640 nm, a detection medium that turns purple or blue in the presence of alkaline phosphatase.
Then 20 μL of the supernatant from each well was incubated with […] Quanti-blue substrate solution at 37° C. for 2 hrs and the absorbance was read at 620-655 nm using a spectrophotometer. The signaling pathway that TLR7 activation leads to downstream NF-κB activation has been widely accepted, and therefore similar reporter assay was modified for evaluating TLR7 antagonist.

Row | Structure (SMILES) | IC50 (human TLR8) [µM] | IC50 (human TLR7) [µM]
1 | CO[C@@H]1CN(c2ccc(CCN3CCN4[C@@H](C3)CN(c3ccc(C#N)n5ncc(F)c35)C[C@H]4C)cc2)C[C@H]1N [Example 66, 4-[(4R,9aS)-8-[2-[4-[(3R,4R)-3-amino-4-methoxy-pyrrolidin-1-yl]phenyl]ethyl]-4-methyl-3,4,6,7,9,9a-hexahydro-1H-pyrazino[1,2-a]pyrazin-2-yl]-3-fluoro-pyrazolo[1,5-a]pyridine-7-carbonitrile] | 0.039 | 0.062
2 | CO[C@H]1CN(c2ccc(CCN3CCN4[C@@H](C3)CN(c3ccc(C#N)c5ncccc35)C[C@H]4C)cn2)C[C@@H]1N [Example 25, 5-[(4R,9aS)-8-[2-[6-[(3S,4S)-3-amino-4-methoxy-pyrrolidin-1-yl]-3-pyridyl]ethyl]-4-methyl-3,4,6,7,9,9a-hexahydro-1H-pyrazino[1,2-a]pyrazin-2-yl]quinoline-8-carbonitrile] | 0.025 | 0.013
3 | CO[C@@H]1CN(c2ccnc(N3CCN4[C@@H](C3)CN(c3ccc(C#N)c5ncccc35)C[C@H]4C)n2)C[C@H]1N [Example 37, 5-[(4R,9aR)-8-[4-[(3R,4R)-3-amino-4-methoxy-pyrrolidin-1-yl]pyrimidin-2-yl]-4-methyl-3,4,6,7,9,9a-hexahydro-1H-pyrazino[1,2-a]pyrazin-2-yl]quinoline-8-carbonitrile] | 0.026 | 0.021
4 | CO[C@@H]1CN(c2ccc(CCN3CCN4[C@@H](C3)CN(c3ccc(C#N)n5ncc(F)c35)C[C@H]4C)cn2)C[C@H]1N [Example 67, 4-[(4R,9aS)-8-[2-[6-[(3R,4R)-3-amino-4-methoxy-pyrrolidin-1-yl]-3-pyridyl]ethyl]-4-methyl-3,4,6,7,9,9a-hexahydro-1H-pyrazino[1,2-a]pyrazin-2-yl]-3-fluoro-pyrazolo[1,5-a]pyridine-7-carbonitrile] | 0.084 | 0.065
5 | [2H]c1ccc2c(N3C[C@@H]4CN(c5ncc(C(=O)N6CC7(CN(C)C7)C6)cc5C)CCN4[C@H](C)C3)ccc(C#N)c2n1 [Example 102, 5-[(4R,9aR)-4-methyl-8-[3-methyl-5-(6-methyl-2,6-diazaspiro[3.3]heptane-2-carbonyl)-2-pyridyl]-3,4,6,7,9,9a-hexahydro-1H-pyrazino[1,2-a]pyrazin-2-yl]-2-deuterio-quinoline-8-carbonitrile] | 0.002 | 0.004
6 | C[C@@H]1CN(c2ccc(C#N)c3ncccc23)C[C@@H]2CN(CCc3ccc(N4CCNCC4)nc3)CCN21 [Example 11, 5-[(4R,9aS)-4-methyl-8-[2-(6-piperazin-1-yl-3-pyridyl)ethyl]-3,4,6,7,9,9a-hexahydro-1H-pyrazino[1,2-a]pyrazin-2-yl]quinoline-8-carbonitrile] | 0.021 | 0.007
7 | C[C@@H]1CN(c2ccc(C#N)c3ncccc23)C[C@@H]2CN(c3ccnc(N4CCOC[C@@H](N)C4)c3)CCN21 [Example 53, 5-[(4R,9aS)-8-[2-[(6S)-6-amino-1,4-oxazepan-4-yl]-4-pyridyl]-4-methyl-3,4,6,7,9,9a-hexahydro-1H-pyrazino[1,2-a]pyrazin-2-yl]quinoline-8-carbonitrile] | 0.02 | 0.013
8 | [2H]c1ccc2c(N3C[C@@H]4CN(c5ncc(N6CC7CC(C6)N7)cc5C)CCN4[C@@H](C)C3)ccc(C#N)c2n1 [Example 108, 5-[(4S,9aR)-8-[5-(3,6-diazabicyclo[3.1.1]heptan-3-yl)-3-methyl-2-pyridyl]-4-methyl-3,4,6,7,9,9a-hexahydro-1H-pyrazino[1,2-a]pyrazin-2-yl]-2-deuterio-quinoline-8-carbonitrile] | 0.006 | 0.003
9 | C[C@@H]1CN(c2ccc(C#N)c3ncccc23)C[C@@H]2CN(c3ccnc(N4C[C@@H](F)[C@@H](N)C4)c3)CCN21 [Example 40, 5-[(4R,9aS)-8-[2-[(3S,4R)-3-amino-4-fluoro-pyrrolidin-1-yl]-4-pyridyl]-4-methyl-3,4,6,7,9,9a-hexahydro-1H-pyrazino[1,2-a]pyrazin-2-yl]quinoline-8-carbonitrile] | 0.007 | 0.007
10 | C[C@@H]1CN(c2cccc(CCN3CCN4[C@@H](C3)CN(c3ccc(C#N)c5ncccc35)C[C@H]4C)n2)CCN1 [Example 58, 5-[(4R,9aS)-4-methyl-8-[2-[6-[(3R)-3-methylpiperazin-1-yl]-2-pyridyl]ethyl]-3,4,6,7,9,9a-hexahydro-JH-pyrazino[1,2-a]pyrazin-2-yl]quinoline-8-carbonitrile] | 0.04 | 0.02
11 | C[C@@H]1CN(c2ccc(C#N)c3ncccc23)C[C@@H]2CN(c3ccnc(N4CC(C)(N)C4)c3)CCN21 [Example 56, 5-[(4R,9aS)-8-[2-(3-amino-3-methyl-azetidin-1-yl)-4-pyridyl]-4-methyl-3,4,6,7,9,9a-hexahydro-1H-pyrazino[1,2-a]pyrazin-2-yl]quinoline-8-carbonitrile] | 0.008 | 0.013
12 | C[C@@H]1CN(c2ccc(C#N)c3ncccc23)C[C@@H]2CN(Cc3cccc4c3CNC4)CCN21 [Example 72, 5-[(4R,9aS)-8-(isoindolin-4-ylmethyl)-4-methyl-3,4,6,7,9,9a-hexahydro-1H-pyrazino[1,2-a]pyrazin-2-yl]quinoline-8-carbonitrile] | 0.015 | 0.012
13 | C[C@@H]1CN(c2ccc(C#N)c3ncccc23)C[C@@H]2CN(c3nccc(N4CC(N)C4)n3)CCN21 [Example 39, 5-[(4R,9aR)-8-[4-(3-aminoazetidin-1-yl)pyrimidin-2-yl]-4-methyl-3,4,6,7,9,9a-hexahydro-1H-pyrazino[1,2-a]pyrazin-2-yl]quinoline-8-carbonitrile] | 0.017 | 0.021
14 | Cc1cnc(N2CCN3[C@@H](C2)CN(c2ccc(C#N)c4ncccc24)C[C@H]3C)nc1N1CCNCC1 [Example 43, 5-[(4R,9aR)-4-methyl-8-(5-methyl-4-piperazin-1-yl-pyrimidin-2-yl)-3,4,6,7,9,9a-hexahydro-1H-pyrazino[1,2-a]pyrazin-2-yl]quinoline-8-carbonitrile] | 0.013 | 0.009
